Source: patent US8772480B2, “Inhibitors of PI3 kinase and/or mTOR” (priority 2009, dated 2014)

Columns and labels:
[1] = target: human mutant B-raf (HuBraf V600E) (Homo sapiens (Human), UniProt P15056, V600E); details: at 10 μM compound concentration; POC = 100 − percent inhibition
[2] = target: ProfilerPro Kinase Selectivity Assay Kit kinases (Homo sapiens, UniProt P06213); type: biochemical; details: INSR; 1 μM compound concentration
[3] = target: ProfilerPro Kinase Selectivity Assay Kit kinases (Homo sapiens, UniProt Q15418); type: biochemical; details: RSK1; 1 μM compound concentration
[4] = target: ProfilerPro Kinase Selectivity Assay Kit kinases (Homo sapiens, UniProt O14965); type: biochemical; details: AURORA A; 1 μM compound concentration
[5] = target: ProfilerPro Kinase Selectivity Assay Kit kinases (Homo sapiens, UniProt Q9P1W9); type: biochemical; details: PIM2; 1 μM compound concentration
[6] = tested on: ProfilerPro Kinase Selectivity Assay Kit kinases; type: biochemical; details: 1 μM compound concentration
[7] = target: ProfilerPro Kinase Selectivity Assay Kit kinases (Homo sapiens, UniProt Q13976); type: biochemical; details: PKGa2; 1 μM compound concentration
ProfilerPro Kinase Selectivity Assay Kit kinases (Homo sapiens, UniProt Q13976), sequence (Q13976 2-671 limits assumed): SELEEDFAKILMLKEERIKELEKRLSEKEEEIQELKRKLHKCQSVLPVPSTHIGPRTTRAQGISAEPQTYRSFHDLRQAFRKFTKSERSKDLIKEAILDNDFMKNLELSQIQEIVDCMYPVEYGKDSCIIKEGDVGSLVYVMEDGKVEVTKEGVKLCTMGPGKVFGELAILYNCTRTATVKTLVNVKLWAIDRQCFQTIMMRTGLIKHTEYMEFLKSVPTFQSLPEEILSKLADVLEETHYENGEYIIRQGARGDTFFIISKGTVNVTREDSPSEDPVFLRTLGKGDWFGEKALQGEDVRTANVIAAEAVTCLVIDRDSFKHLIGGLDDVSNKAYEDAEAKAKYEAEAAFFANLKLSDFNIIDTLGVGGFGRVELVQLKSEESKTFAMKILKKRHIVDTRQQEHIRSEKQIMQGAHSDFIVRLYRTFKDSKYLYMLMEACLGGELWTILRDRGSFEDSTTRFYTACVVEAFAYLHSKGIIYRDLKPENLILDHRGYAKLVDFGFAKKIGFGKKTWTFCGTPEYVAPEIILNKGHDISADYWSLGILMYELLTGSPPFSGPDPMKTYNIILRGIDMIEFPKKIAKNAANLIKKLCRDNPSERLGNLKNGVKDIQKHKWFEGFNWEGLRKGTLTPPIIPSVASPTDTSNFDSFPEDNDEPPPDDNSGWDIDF

[8] = target: ProfilerPro Kinase Selectivity Assay Kit kinases (Homo sapiens, UniProt P23443); type: biochemical; details: p70S6K; 1 μM compound concentration
[9] = target: ProfilerPro Kinase Selectivity Assay Kit kinases (Homo sapiens, UniProt Q05513); type: biochemical; details: PKC zeta; 1 μM compound concentration
[10] = target: ProfilerPro Kinase Selectivity Assay Kit kinases (Homo sapiens, UniProt Q13627); type: biochemical; details: DYRK1a; 1 μM compound concentration
[11] = target: ProfilerPro Kinase Selectivity Assay Kit kinases (Homo sapiens, UniProt P12931); type: biochemical; details: SRC; 1 μM compound concentration
ProfilerPro Kinase Selectivity Assay Kit kinases (Homo sapiens, UniProt P12931), sequence (P12931 2-536 limits assumed): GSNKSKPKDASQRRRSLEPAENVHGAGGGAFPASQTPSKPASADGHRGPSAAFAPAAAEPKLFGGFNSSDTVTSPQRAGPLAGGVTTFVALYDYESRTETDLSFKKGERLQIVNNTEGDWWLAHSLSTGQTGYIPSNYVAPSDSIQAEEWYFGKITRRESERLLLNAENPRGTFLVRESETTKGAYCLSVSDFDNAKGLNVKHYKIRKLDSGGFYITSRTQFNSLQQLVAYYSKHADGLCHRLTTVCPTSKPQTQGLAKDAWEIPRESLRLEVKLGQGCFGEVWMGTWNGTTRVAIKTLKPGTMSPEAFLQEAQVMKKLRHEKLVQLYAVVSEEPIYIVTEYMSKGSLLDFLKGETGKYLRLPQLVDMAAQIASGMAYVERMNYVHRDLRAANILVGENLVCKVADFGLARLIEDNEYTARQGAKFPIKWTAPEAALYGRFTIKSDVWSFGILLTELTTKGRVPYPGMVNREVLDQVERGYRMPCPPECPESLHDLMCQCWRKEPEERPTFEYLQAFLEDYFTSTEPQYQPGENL

[12] = target: ProfilerPro Kinase Selectivity Assay Kit kinases (Homo sapiens, UniProt P36888); type: biochemical; details: FLT3; 1 μM compound concentration
ProfilerPro Kinase Selectivity Assay Kit kinases (Homo sapiens, UniProt P36888), sequence (P36888 27-993 limits assumed): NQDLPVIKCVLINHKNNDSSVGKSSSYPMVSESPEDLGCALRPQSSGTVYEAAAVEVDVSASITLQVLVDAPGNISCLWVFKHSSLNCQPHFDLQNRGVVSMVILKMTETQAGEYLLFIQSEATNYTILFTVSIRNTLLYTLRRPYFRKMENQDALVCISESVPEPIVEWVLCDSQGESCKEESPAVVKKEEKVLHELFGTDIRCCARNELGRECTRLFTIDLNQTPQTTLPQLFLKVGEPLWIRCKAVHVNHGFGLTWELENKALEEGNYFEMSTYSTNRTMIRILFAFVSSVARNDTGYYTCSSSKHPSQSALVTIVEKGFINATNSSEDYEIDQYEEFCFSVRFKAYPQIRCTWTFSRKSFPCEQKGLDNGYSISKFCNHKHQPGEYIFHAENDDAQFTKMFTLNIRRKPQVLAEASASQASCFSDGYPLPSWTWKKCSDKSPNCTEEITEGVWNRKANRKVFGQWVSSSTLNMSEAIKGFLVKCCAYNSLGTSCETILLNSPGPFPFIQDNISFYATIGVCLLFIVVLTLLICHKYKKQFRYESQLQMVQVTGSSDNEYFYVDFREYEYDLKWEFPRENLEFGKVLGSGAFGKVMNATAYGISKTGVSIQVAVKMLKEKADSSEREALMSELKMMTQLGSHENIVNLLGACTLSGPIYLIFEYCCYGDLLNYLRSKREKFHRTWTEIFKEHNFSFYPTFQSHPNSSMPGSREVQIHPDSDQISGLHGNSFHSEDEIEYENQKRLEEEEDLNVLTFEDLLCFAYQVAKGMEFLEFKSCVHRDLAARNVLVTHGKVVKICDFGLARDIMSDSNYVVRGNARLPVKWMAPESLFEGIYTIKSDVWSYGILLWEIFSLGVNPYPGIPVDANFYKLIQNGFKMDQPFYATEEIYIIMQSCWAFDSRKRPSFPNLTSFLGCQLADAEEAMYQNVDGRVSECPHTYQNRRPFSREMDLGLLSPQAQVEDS

[13] = target: ProfilerPro Kinase Selectivity Assay Kit kinases (Homo sapiens, UniProt P24941); type: biochemical; details: CDK2; 1 μM compound concentration
[14] = target: ProfilerPro Kinase Selectivity Assay Kit kinases (Homo sapiens, UniProt P11362); type: biochemical; details: FGFR1; 1 μM compound concentration
PI3Kα = PI3Kα (Homo sapiens (Human), UniProt P42336); details: read-out: PI3Kα AlphaScreen ® Ki
PI3Kα, sequence (P42336 whole entry): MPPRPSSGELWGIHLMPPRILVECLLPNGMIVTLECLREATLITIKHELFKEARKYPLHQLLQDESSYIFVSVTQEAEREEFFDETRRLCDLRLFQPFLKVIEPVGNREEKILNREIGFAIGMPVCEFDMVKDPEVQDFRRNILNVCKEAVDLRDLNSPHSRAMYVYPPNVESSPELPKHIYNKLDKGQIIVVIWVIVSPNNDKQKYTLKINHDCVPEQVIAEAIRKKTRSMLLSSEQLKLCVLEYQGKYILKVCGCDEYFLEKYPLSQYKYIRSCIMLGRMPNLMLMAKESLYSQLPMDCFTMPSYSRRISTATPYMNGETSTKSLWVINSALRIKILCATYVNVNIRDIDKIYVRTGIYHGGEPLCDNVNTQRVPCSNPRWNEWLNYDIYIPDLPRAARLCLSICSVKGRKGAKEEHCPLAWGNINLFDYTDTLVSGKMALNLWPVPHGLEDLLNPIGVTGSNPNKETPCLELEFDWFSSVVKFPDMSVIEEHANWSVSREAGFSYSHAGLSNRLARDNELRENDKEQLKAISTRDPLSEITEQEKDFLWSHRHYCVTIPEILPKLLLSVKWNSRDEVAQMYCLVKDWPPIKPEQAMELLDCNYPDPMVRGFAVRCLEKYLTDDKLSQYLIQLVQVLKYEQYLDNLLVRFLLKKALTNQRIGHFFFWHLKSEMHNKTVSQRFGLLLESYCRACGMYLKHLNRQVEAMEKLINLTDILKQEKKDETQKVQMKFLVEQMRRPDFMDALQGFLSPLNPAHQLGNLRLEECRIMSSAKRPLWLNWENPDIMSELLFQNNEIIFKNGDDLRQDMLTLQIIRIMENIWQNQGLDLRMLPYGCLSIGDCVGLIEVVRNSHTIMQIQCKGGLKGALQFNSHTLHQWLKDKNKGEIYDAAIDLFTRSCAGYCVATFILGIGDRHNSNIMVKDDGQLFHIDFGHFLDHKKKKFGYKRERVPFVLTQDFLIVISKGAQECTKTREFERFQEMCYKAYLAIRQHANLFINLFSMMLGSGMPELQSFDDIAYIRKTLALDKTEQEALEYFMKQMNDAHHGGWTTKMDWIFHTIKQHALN
PI3Kα, sequence (P27986 whole entry partner): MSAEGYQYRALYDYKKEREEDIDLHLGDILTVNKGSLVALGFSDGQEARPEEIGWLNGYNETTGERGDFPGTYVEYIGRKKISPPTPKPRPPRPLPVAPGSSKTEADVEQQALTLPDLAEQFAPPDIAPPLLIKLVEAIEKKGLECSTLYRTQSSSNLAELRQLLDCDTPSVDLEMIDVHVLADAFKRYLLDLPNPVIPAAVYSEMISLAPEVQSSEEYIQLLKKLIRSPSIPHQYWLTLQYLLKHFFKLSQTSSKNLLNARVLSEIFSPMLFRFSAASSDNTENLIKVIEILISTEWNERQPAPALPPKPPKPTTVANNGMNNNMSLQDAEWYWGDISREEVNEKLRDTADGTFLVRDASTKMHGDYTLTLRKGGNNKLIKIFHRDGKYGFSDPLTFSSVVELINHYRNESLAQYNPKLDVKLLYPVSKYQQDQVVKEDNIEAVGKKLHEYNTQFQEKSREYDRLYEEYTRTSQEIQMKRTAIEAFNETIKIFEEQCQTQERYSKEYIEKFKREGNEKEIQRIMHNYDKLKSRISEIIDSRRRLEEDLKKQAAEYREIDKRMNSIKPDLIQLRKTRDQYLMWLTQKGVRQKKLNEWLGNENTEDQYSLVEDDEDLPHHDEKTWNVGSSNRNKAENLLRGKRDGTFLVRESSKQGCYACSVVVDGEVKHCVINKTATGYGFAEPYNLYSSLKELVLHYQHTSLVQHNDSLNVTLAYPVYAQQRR

[15] = tested on: phosphorylation of Akt at Serine 473 in U87 MG cells; assay: cells; details: Homo sapiens, U-87 MG, 2 h, read-out: U87Cell IC50, pAkt (Ser 473), U87 MG cells, two hours with compound

human mutant B-raf (HuBraf V600E), sequence (P15056 whole entry V600E): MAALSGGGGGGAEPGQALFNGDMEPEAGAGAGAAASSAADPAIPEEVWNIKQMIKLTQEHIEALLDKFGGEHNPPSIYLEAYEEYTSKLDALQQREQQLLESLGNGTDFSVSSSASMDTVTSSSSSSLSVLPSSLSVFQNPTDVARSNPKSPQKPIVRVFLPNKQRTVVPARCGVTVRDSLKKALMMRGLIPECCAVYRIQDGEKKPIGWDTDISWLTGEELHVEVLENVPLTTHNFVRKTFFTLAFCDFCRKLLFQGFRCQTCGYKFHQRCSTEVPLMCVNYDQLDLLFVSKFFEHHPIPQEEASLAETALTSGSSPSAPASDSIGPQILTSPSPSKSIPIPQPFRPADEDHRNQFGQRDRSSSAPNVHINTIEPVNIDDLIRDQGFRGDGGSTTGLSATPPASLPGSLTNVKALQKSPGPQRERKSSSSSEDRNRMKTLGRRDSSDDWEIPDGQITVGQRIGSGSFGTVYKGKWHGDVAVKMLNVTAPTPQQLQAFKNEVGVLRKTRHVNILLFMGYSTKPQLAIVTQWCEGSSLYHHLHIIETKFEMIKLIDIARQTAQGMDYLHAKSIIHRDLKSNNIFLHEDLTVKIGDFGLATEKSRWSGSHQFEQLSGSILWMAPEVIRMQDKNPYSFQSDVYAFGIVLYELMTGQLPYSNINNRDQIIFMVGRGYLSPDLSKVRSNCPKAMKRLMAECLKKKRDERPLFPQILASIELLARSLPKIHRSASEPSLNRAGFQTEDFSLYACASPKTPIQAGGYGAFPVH

Structure (SMILES) | Mutant B-raf HTRF Assay POC Mean n = 2 [1] | POC (Percent of control) INSR [2] | POC (Percent of control) RSK1 [3] | POC (Percent of control) AURORA A [4] | POC (Percent of control) PIM2 [5] | POC (Percent of control) AMPK [6] | POC (Percent of control) CAMK2 [6] | POC (Percent of control) PKC beta2 [6] | POC (Percent of control) TAK1 [6] | POC (Percent of control) PKGa2 [7] | POC (Percent of control) p70S6K [8] | POC (Percent of control) PKC zeta [9] | POC (Percent of control) DYRK1a [10] | POC (Percent of control) SRC [11] | POC (Percent of control) FLT3 [12] | POC (Percent of control) CDK2 [13] | POC (Percent of control) FGFR1 [14] | Ki (PI3Kα) | IC50 [15]
COc1ccc(Nc2ncccc2-c2ncnc3[nH]cnc23)cn1 [Example 20, N-(6-Methoxypyridin-3-yl)-3-(9H-Purin-6-yl)Pyridin-2-Amine] | 72% of Control (POC) | 97 POC | 97 POC | 96 POC | 105 POC | 93 POC | 111 POC | 104 POC | 99 POC | 98 POC | 104 POC | 99 POC | 102 POC | 95 POC | 120 POC | 96 POC | 94 POC |  | 
Cc1nc(N)nc(-c2cccnc2Nc2cccc3[nH]ccc23)n1 [Example 22, N-(3-(4-Amino-6-Methyl-1,3,5-Triazin-2-yl)Pyridin-2-yl)-1H-Indol-4-Amine] | 118% of Control (POC) | 96 POC | 100 POC | 102 POC | 97 POC | 92 POC | 118 POC | 96 POC | 99 POC | 93 POC | 74 POC | 98 POC | 96 POC | 101 POC | 105 POC | 107 POC | 96 POC |  | 
Cc1nc(N)nc(-c2cccnc2Nc2cccc(O)c2)n1 [Example 23, 3-(3-(4-Amino-6-Methyl-1,3,5-Triazin-2-yl)Pyridin-2-Ylamino)Phenol] | 100% of Control (POC) | 98 POC | 103 POC | 112 POC | 99 POC | 98 POC | 108 POC | 92 POC | 102 POC | 87 POC | 112 POC | 102 POC | 93 POC | 99 POC | 106 POC | 106 POC | 99 POC |  | 
COc1ccc(Nc2ncccc2-c2nc(C)nc3[nH]cnc23)cn1 [Example 58, N-(6-methoxypyridin-3-yl)-3-(2-methyl-9H-purin-6-yl)pyridin-2-amine] | 97% of Control (POC) | 104 POC | 94 POC | 94 POC | 94 POC | 99 POC | 103 POC | 161 POC | 107 POC | 97 POC | 98 POC | 142 POC | 93 POC | 102 POC | 112 POC | 99 POC | 94 POC |  | 
COc1ccc(Nc2ncc(Cc3ccc(S(C)(=O)=O)cc3)cc2-c2nc(C)nc3[nH]cnc23)cn1 [Example 103, N-(6-methoxypyridin-3-yl)-3-(2-methyl-9H-purin-6-yl)-5-(4-(methylsulfonyl)benzyl)pyridin-2-amine] |  | 95 POC | 100 POC | 100 POC | 96 POC | 102 POC | 95 POC | 100 POC | 115 POC | 98 POC | 109 POC | 98 POC | 83 POC | 89 POC | 85 POC | 100 POC | 100 POC | 2 nM | 28 nM

Next, values leading:

Mutant B-raf HTRF Assay POC Mean n = 2 [1] | POC (Percent of control) INSR [2] | POC (Percent of control) RSK1 [3] | POC (Percent of control) AURORA A [4] | POC (Percent of control) PIM2 [5] | POC (Percent of control) AMPK [6] | POC (Percent of control) CAMK2 [6] | POC (Percent of control) PKC beta2 [6] | POC (Percent of control) TAK1 [6] | POC (Percent of control) PKGa2 [7] | POC (Percent of control) p70S6K [8] | POC (Percent of control) PKC zeta [9] | POC (Percent of control) DYRK1a [10] | POC (Percent of control) SRC [11] | POC (Percent of control) FLT3 [12] | POC (Percent of control) CDK2 [13] | POC (Percent of control) FGFR1 [14] | Ki (PI3Kα) | IC50 [15] | Structure (SMILES)
3% of Control (POC) | 90 POC | 96 POC | 84 POC | 101 POC | 83 POC | 90 POC | 91 POC | 97 POC | 90 POC | 98 POC | 102 POC | 59 POC | 93 POC | 106 POC | 91 POC | 62 POC | 22600 nM |  | c1cnc(Nc2cccc3[nH]ncc23)c(-c2ncnc3[nH]cnc23)c1 [Example 18, N-(3-(9H-Purin-6-yl)Pyridin-2-yl)-1H-Indazol-4-Amine]
110% of Control (POC) | 71 POC | 89 POC | 78 POC | 106 POC | 83 POC | 116 POC | 166 POC | 102 POC | 90 POC | 91 POC | 99 POC | 92 POC | 89 POC | 73 POC | 84 POC | 94 POC | 130 nM |  | Cc1nc(N)cc(-c2cccnc2Nc2cccc3[nH]ncc23)n1 [Example 27, N-(3-(6-Amino-2-Methylpyrimidin-4-yl)Pyridin-2-yl)-1H-Indazol-4-Amine]
87% of Control (POC) | 94 POC | 97 POC | 99 POC | 94 POC | 92 POC | 109 POC | 97 POC | 97 POC | 98 POC | 94 POC | 100 POC | 91 POC | 93 POC | 92 POC | 95 POC | 95 POC |  |  | Cc1nc(-c2cccnc2Nc2cccc3[nH]ncc23)c2nc[nH]c2n1 [Example 57, N-(3-(2-methyl-9H-purin-6-yl)pyridin-2-yl)-1H-indazol-4-amine]
